Where two headings read alike, the source gives them in different places.
Key:
[1] = target: T1, AKT1 WT (Homo sapiens, UniProt P31749); test: Live cell AKT1 WT target engagement by NanoBRET competitive probe displacement in HEK293 cells; assay type: binding; details: 2 h at 37° C., read-out: AKT1 WT IC50
T1 construct: expressed in transfected cells; host or cells: HEK293

[2] = target: T2, AKT2 (Homo sapiens, UniProt P31751); test: Live cell AKT2 target engagement by NanoBRET competitive probe displacement in HEK293 cells; assay type: binding; details: 2 h at 37° C., read-out: AKT2 IC50
T2 construct: expressed in transfected cells; host or cells: HEK293
T2 sequence (P31751 whole entry): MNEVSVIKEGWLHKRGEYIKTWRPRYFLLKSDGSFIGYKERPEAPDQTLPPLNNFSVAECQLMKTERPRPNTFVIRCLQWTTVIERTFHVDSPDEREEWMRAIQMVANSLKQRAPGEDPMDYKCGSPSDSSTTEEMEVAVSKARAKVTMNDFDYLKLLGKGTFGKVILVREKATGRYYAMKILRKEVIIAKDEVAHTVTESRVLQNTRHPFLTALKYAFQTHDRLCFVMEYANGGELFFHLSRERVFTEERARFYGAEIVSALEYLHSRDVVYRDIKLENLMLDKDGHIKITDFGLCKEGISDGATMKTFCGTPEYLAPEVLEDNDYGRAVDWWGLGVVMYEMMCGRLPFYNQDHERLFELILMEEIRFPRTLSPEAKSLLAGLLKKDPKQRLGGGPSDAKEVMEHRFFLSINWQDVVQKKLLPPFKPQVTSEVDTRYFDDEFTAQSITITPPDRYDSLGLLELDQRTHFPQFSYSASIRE

[3] = NanoBRET live cell target engagement, HEK293 cells
[4] = NanoBRET competitive probe displacement, live HEK293 cells

T1 sequence (P31749 whole entry): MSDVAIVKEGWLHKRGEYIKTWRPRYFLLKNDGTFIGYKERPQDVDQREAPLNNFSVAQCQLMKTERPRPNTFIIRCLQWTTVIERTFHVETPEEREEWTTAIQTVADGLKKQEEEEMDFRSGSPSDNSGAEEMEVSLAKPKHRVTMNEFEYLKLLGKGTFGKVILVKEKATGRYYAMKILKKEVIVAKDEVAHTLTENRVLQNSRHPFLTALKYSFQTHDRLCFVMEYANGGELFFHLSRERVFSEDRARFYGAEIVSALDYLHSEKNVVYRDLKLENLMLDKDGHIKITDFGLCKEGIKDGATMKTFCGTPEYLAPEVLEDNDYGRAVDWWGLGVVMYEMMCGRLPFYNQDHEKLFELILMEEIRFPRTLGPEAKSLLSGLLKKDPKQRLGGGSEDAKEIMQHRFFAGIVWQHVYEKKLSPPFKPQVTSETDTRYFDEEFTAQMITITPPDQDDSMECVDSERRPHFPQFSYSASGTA

SMILES	IC50 [1, 3] [nM]	IC50 [2, 3] [nM]	IC50 [1, 4] [nM]	IC50 [2, 4] [nM]
Cc1ncccc1C(=O)N[C@H]1CCc2cc(-n3c(-c4cccnc4N)nc4ccc(-n5nccn5)nc43)ccc21 [Compound 93]	38.8	1790		
Nc1ncccc1-c1nc2ccc(-n3cccn3)nc2n1-c1ccc2c(c1)CC[C@@H]2NC1CCS(=O)(=O)CC1 [Compound 89]	459	> 10000		
Cc1cnc(C)c(C(=O)N[C@H]2CCc3cc(-n4c(-c5cccnc5N)nc5ccc(-n6cccn6)nc54)ccc32)c1 [Compound 137]	21.5	174		
CN(C)Cc1cc(C(=O)N[C@H]2CCc3cc(-n4c(-c5cccnc5N)nc5ccc(-n6cccn6)nc54)ccc32)ccn1 [Compound 205]	168	2340		
Cc1cnc(C)c(C(=O)N[C@H]2CCc3cc(-n4c(-c5cccnc5N)nc5ccc(-n6cccn6)nc54)ccc32)n1 [Compound 183]	330	> 10000		
Nc1ncccc1-c1nc2ccc(-n3cccn3)nc2n1-c1ccc2c(c1)CC[C@@H]2NCc1cccnc1 [Compound 141]	52.6	734		
Nc1ncccc1-c1nc2ccc(-n3ccc(N4CC5CC(C4)O5)n3)nc2n1-c1ccc2c(c1)CC(F)[C@@H]2NC1CCN(C(=O)C2CC2)CC1 (stereo partly shown) [Compound 552]			9.18	166
Nc1ncccc1-c1nc2ccc(-n3nccn3)nc2n1-c1ccc2c(c1)CC[C@@H]2NC(=O)c1cnc(C(F)F)c(F)c1 [Compound 121]	36.6	1590		
Cc1ncc(C(=O)N[C@H]2CCc3cc(-n4c(-c5cccnc5N)nc5ccc(-n6nccn6)nc54)ccc32)c(C)n1 [Compound 92]	42.8	1140		
Cc1nncn1[C@H]1CCc2cc(-n3c(-c4cccnc4N)nc4ccc(-n5cccn5)nc43)ccc21 [Compound 217, (S)-3-(3-(1-(3-methyl-4H-1,2,4-triazol-4-yl)-2,3-dihydro-1H-inden-5-yl)-5-(1H-pyrazol-1-yl)-3H-imidazo[4,5-b]pyridin-2-yl)pyridin-2-amine]	38.9	328		
Nc1ncccc1-c1nc2ccc(-n3cccn3)nc2n1-c1ccc2c(c1)CC[C@@H]2NC(=O)c1ccc2c(c1)CC(=O)N2 [Compound 194]	9.37	39.5		
Cc1cc2c(=O)n([C@H]3CCc4cc(-n5c(-c6cccnc6N)nc6ccc(-n7cccn7)nc65)ccc43)cnc2cn1 [Compound 81, (S)-3-(5-(2-(2-aminopyridin-3-yl)-5-(1H-pyrazol-1-yl)-3H-imidazo[4,5-b]pyridin-3-yl)-2,3-dihydro-1H-inden-1-yl)-6-methylpyrido[3,4-d]pyrimidin-4(3H)-one]	121	2900		
Nc1ncccc1-c1nc2ccc(-n3cccn3)nc2n1-c1ccc2c(c1)CC[C@@H]2NC(=O)c1ccc(CF)nc1 [Compound 98]	13.2	52.6		
Cc1cccnc1C(=O)N[C@H]1CCc2cc(-n3c(-c4cccnc4N)nc4ccc(-n5cccn5)nc43)ccc21 [Compound 184]	114	4740		
Cc1ccc(C(C)N[C@H]2CCc3cc(-n4c(-c5cccnc5N)nc5ccc(-n6cccn6)nc54)ccc32)cn1 (stereo partly shown) [Compound 154]	508	3180		
Nc1ncccc1-c1nc2ccc(-n3cccn3)nc2n1-c1ccc2c(c1)CC[C@@H]2NC(=O)c1cnc2c(c1)CCC2 [Compound 94]	7.33	18.8		

More lines, now with the values ahead:

IC50 [1, 3] [nM]	IC50 [2, 3] [nM]	IC50 [1, 4] [nM]	IC50 [2, 4] [nM]	SMILES
7.29	28.1			Nc1ncccc1-c1nc2ccc(-n3cccn3)nc2n1-c1ccc2c(c1)CC[C@@H]2NC(=O)c1ccc2ncnn2c1 [Compound 237]
10.8	8.38			CC(=O)Nc1ccc(C(=O)N[C@H]2CCc3cc(-n4c(-c5cccnc5N)nc5ccc(-n6cccn6)nc54)ccc32)cc1F [Compound 309]
120	4290			Nc1ncccc1-c1nc2ccc(-n3cccn3)nc2n1-c1ccc2c(c1)CCC2n1cccn1 (stereo not shown) [Compound 325, 3-(3-(1-(1H-pyrazol-1-yl)-2,3-dihydro-1H-inden-5-yl)-5-(1H-pyrazol-1-yl)-3H-imidazo[4,5-b]pyridin-2-yl)pyridin-2-amine]
		20.2	1260	Nc1ncccc1-c1nc2ccc(-n3nccn3)nc2n1-c1ccc2c(c1)CC[C@@H]2NC(=O)c1cnc(C(F)(F)F)s1 [Compound 526]
		17.2	320	Nc1ncccc1-c1nc2ccc(C#CC3CC3)nc2n1-c1ccc2c(c1)CC[C@@H]2n1cnnc1 [Compound 528]
		421	3550	CN(C)CC#Cc1ccc2nc(-c3cccnc3N)n(-c3ccc4c(c3)CC[C@@H]4NC(=O)c3ccc(C(F)F)nc3)c2n1 [Compound 407]
7.16	51.6			Nc1ncc(C(=O)N[C@H]2CCc3cc(-n4c(-c5cccnc5N)nc5ccc(-n6cccn6)nc54)ccc32)cc1F [Compound 298]
16.9	201			Cc1csc(-c2ccc3nc(-c4cccnc4N)n(-c4ccc5c(c4)CC[C@@H]5n4ccnn4)c3n2)n1 [Compound 316]
		18	404	Nc1ncccc1-c1nc2ccc(-n3cccn3)nc2n1-c1ccc2c(c1)CC[C@@H]2NC1CCN(c2cccnc2)C1 (stereo partly shown) [Compound 472]
		976	> 10000	CN1CC(C#Cc2ccc3nc(-c4cccnc4N)n(-c4ccc5c(c4)CC[C@@H]5NC(=O)c4ccc(C(F)F)nc4)c3n2)C1 [Compound 411, (S)—N-(5-(2-(2-aminopyridin-3-yl)-5-((1-methylazetidin-3-yl)ethynyl)-3H-imidazo[4,5-b]pyridin-3-yl)-2,3-dihydro-1H-inden-1-yl)-6-(difluoromethyl)nicotinamide]
> 1000	> 10000			Nc1ncccc1-c1nc2ccc(-n3cccn3)nc2n1-c1ccc2c(c1)CC[C@@H]2n1cc(C2CNC2)nn1 [Compound 250]
		9.86	274	Nc1ncccc1-c1nc2ccc(-n3ccc(N4CCS(=O)(=O)CC4)n3)nc2n1-c1ccc2c(c1)CC[C@@H]2NC1CCN(C(=O)C2CC2)CC1 [Compound 565]
80.8	4750			Cc1cn([C@H]2CCc3cc(-n4c(-c5cccnc5N)nc5ccc(-n6cccn6)nc54)ccc32)nn1 [Compound 304]
		33.5	1330	Nc1ncccc1-c1nc2ccc(-n3ccc(OC(F)F)n3)nc2n1-c1ccc2c(c1)CC(F)[C@@H]2NC1CCN(C(=O)C2CC2)CC1 (stereo partly shown) [Compound 525]
		33.7	2820	C#Cc1ccc2nc(-c3cccnc3N)n(-c3ccc4c(c3)CC[C@@H]4NC(=O)c3ccc(C(F)F)nc3)c2n1 [Compound 404]
22.8	111			Nc1ncccc1-c1nc2ccc(-n3cccn3)nc2n1-c1ccc2c(c1)CC[C@@H]2NC(=O)c1ccnc2c1CCC2 [Compound 235]
		16.1	945	O=C(C1CC1)N1CCC(N[C@@H]2c3ccc(-n4c(-c5ccccc5F)nc5ccc(-n6ccc(N7CCOCC7)n6)nc54)cc3CC2F)CC1 (stereo partly shown) [Compound 572]
39.8	900			Nc1ncccc1-c1nc2ccc(-n3cccn3)nc2n1-c1ccc2c(c1)CC[C@@H]2n1cc(C2CCO2)nn1 (stereo partly shown) [Compound 354]
		102	2500	Nc1ncccc1-c1nc2ccc(-n3cccn3)nc2n1-c1ccc2c(c1)CC[C@@H]2NC1CCc2nc(C(F)F)sc21 (stereo partly shown) [Compound 601]
